The experiment has as its system L1210 leukemia ip in BDF1 mice, survival T/C. The experiment is described as follows: NCI In Vivo Anticancer Drug Screen. Data for tumor model L1210 Leukemia (intraperitoneal) in B6D2F1 (BDF1) mice. To be noted: endpoint: mean survival time, higher = longer survival. The gist of the method:
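Mice bearing the transplanted tumor received compound or vehicle. Survival of the treated group was divided by that of the vehicle-treated control group to give the ratio.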

The mark [1] stands for this setting: dose: 1.25 mg/kg/injection, schedule: Q01DX009 (ip), vehicle: saline.
The mark [2] stands for this setting: dose: 2.5 mg/kg/injection, schedule: Q01DX009 (ip), vehicle: saline.
Setting [3] is: dose: 5.0 mg/kg/injection, schedule: Q01DX009 (ip), vehicle: saline.
Setting [4] is: dose: 100.0 mg/kg/injection, schedule: Q04DX003 (ip), vehicle: Klucel (hydroxypropylcellulose) (HPC).
Setting [5] is: dose: 200.0 mg/kg/injection, schedule: Q04DX003 (ip), vehicle: Klucel (hydroxypropylcellulose) (HPC).
The mark [6] stands for this setting: dose: 400.0 mg/kg/injection, schedule: Q04DX003 (ip), vehicle: Klucel (hydroxypropylcellulose) (HPC).
Setting [7] is: dose: 100.0 mg/kg/injection, schedule: Q01DX001 (ip), vehicle: saline.
Setting [8] is: dose: 200.0 mg/kg/injection, schedule: Q01DX001 (ip), vehicle: saline.
The mark [9] stands for this setting: dose: 400.0 mg/kg/injection, schedule: Q01DX001 (ip), vehicle: saline.
Where [10] appears, read: dose: 100.0 mg/kg/injection, schedule: Q04DX002 (ip), vehicle: Klucel (hydroxypropylcellulose) (HPC).
Setting [11] is: dose: 100.0 mg/kg/injection, schedule: Q01DX009 (ip), vehicle: Klucel (hydroxypropylcellulose) (HPC).
[12] abbreviates: dose: 200.0 mg/kg/injection, schedule: Q01DX009 (ip), vehicle: Klucel (hydroxypropylcellulose) (HPC).
Where [13] appears, read: dose: 400.0 mg/kg/injection, schedule: Q01DX009 (ip), vehicle: Klucel (hydroxypropylcellulose) (HPC).
[14] abbreviates: dose: 100.0 mg/kg/injection, schedule: Q04DX003 (ip), vehicle: saline with Tween-80.

Toxic doses and inconclusive results are not listed.

For `CN(Cc1ccc2nc(N)nc(N)c2c1)c1ccc(C(=O)NC(CCC(=O)O)C(=O)O)cc1` (stereo unspecified), the T/C was 123 % of control (dose: 0.12 mg/kg/injection, schedule: Q01DX009 (ip), vehicle: other); 192 % of control (dose: 0.5 mg/kg/injection, schedule: Q01DX009 (ip), vehicle: other); 190 % of control (dose: 1.0 mg/kg/injection, schedule: Q01DX009 (ip), vehicle: other); 154 % of control under setting [1]; 101 % of control (dose: 2.1 mg/kg/injection, schedule: Q01DX009 (ip), vehicle: other); 113 % of control under setting [2]. Moreover, the T/C (dose: 5.0 mg/kg/injection, schedule: Q01DX001 (ip), vehicle: other) was 151 % of control; the T/C under setting [3] is 97 % of control; the T/C (dose: 6.6 mg/kg/injection, schedule: Q01DX001 (ip), vehicle: other) was 119 % of control; the T/C (dose: 6.6 mg/kg/injection, schedule: Q01DX001 (ip), vehicle: saline) is 119 % of control; the T/C (dose: 10.0 mg/kg/injection, schedule: Q01DX001 (ip), vehicle: other) is 159 % of control; the T/C (dose: 15.0 mg/kg/injection, schedule: Q01DX001 (ip), vehicle: other) is 154 % of control.

For `CC(C)(C)OC(=O)C1(C(=O)OC(C)(C)C)C2CCCCC21` (stereo unspecified), the T/C (dose: 100.0 mg/kg/injection, schedule: Q01DX001 (ip), vehicle: Klucel (hydroxypropylcellulose) (HPC)) was 95 % of control; the T/C under setting [4] is 101 % of control; the T/C (dose: 200.0 mg/kg/injection, schedule: Q01DX001 (ip), vehicle: Klucel (hydroxypropylcellulose) (HPC)) is 90 % of control; the T/C under setting [5] is 101 % of control; the T/C (dose: 400.0 mg/kg/injection, schedule: Q01DX001 (ip), vehicle: Klucel (hydroxypropylcellulose) (HPC)) is 87 % of control; the T/C under setting [6] was 96 % of control.

With `Cn1ncc2[nH]c(=O)n(OS(=O)(=O)c3ccccc3)c(=O)c21`, the T/C reads like this: (dose: 50.0 mg/kg/injection, schedule: Q01DX001 (ip), vehicle: saline) 100 % of control; under setting [7], 96 % of control; under setting [8], 96 % of control; under setting [9], 87 % of control.

On to `Oc1[nH]c(=S)sc1/C=C1\C=Nc2ccccc21`, for which the T/C runs as follows: (dose: 50.0 mg/kg/injection, schedule: Q01DX001 (ip), vehicle: carboxymethylcellulose (CMC)) 90 % of control; (dose: 100.0 mg/kg/injection, schedule: Q01DX001 (ip), vehicle: carboxymethylcellulose (CMC)) 92 % of control; (dose: 200.0 mg/kg/injection, schedule: Q01DX001 (ip), vehicle: carboxymethylcellulose (CMC)) 90 % of control; (dose: 400.0 mg/kg/injection, schedule: Q01DX001 (ip), vehicle: carboxymethylcellulose (CMC)) 90 % of control.

With `O=C(O)C(O)C(O)C(O)C(O)C(O)CO.[Cu+2]` (stereo unspecified), the T/C (dose: 30.0 mg/kg/injection, schedule: Q01DX001 (ip), vehicle: saline) was 91 % of control.

On to `O=C1C=CC2C3C=CC(CC3)C12` (stereo unspecified), for which the T/C by setting is: (dose: 50.0 mg/kg/injection, schedule: Q04DX002 (ip), vehicle: Klucel (hydroxypropylcellulose) (HPC)) 89 % of control; under setting [10], 93 % of control.

With `O=c1[nH]c(=O)c2[nH]c(Br)c(Br)c2[nH]1`, the T/C by setting is: under setting [7], 93 % of control; under setting [8], 96 % of control; under setting [9], 93 % of control.

As for `CC(=O)OC1CCCCC1NC(=O)N(CCCl)N=O` (stereo unspecified), the T/C was 333 % of control (dose: 27.0 mg/kg/injection, schedule: Q01DX001 (ip), vehicle: carboxymethylcellulose (CMC)); 423 % of control (dose: 40.0 mg/kg/injection, schedule: Q01DX001 (ip), vehicle: carboxymethylcellulose (CMC)); 422 % of control (dose: 60.0 mg/kg/injection, schedule: Q01DX001 (ip), vehicle: carboxymethylcellulose (CMC)); 170 % of control (dose: 90.0 mg/kg/injection, schedule: Q01DX001 (ip), vehicle: carboxymethylcellulose (CMC)).

As to `COC(=O)c1cc([N+](=O)[O-])cc([N+](=O)[O-])c1Br`, the T/C runs as follows: (dose: 3.0 mg/kg/injection, schedule: Q01DX009 (ip), vehicle: saline with Tween-80) 100 % of control; (dose: 6.0 mg/kg/injection, schedule: Q01DX009 (ip), vehicle: saline with Tween-80) 98 % of control; (dose: 12.0 mg/kg/injection, schedule: Q01DX009 (ip), vehicle: saline with Tween-80) 98 % of control; (dose: 12.5 mg/kg/injection, schedule: Q01DX009 (ip), vehicle: Klucel (hydroxypropylcellulose) (HPC)) 96 % of control; (dose: 12.5 mg/kg/injection, schedule: Q04DX003 (ip), vehicle: Klucel (hydroxypropylcellulose) (HPC)) 100 % of control; (dose: 25.0 mg/kg/injection, schedule: Q01DX009 (ip), vehicle: Klucel (hydroxypropylcellulose) (HPC)) 89 % of control. Moreover, the T/C by setting is: (dose: 25.0 mg/kg/injection, schedule: Q04DX003 (ip), vehicle: Klucel (hydroxypropylcellulose) (HPC)) 94 % of control; (dose: 50.0 mg/kg/injection, schedule: Q04DX003 (ip), vehicle: Klucel (hydroxypropylcellulose) (HPC)) 94 % of control.

Take `O=C(COc1ccc(Cl)cc1)Nc1ccc(S(=O)(=O)O)c2ccccc12`: the T/C under setting [10] is 98 % of control; the T/C (dose: 200.0 mg/kg/injection, schedule: Q04DX002 (ip), vehicle: Klucel (hydroxypropylcellulose) (HPC)) is 98 % of control; the T/C (dose: 400.0 mg/kg/injection, schedule: Q04DX002 (ip), vehicle: Klucel (hydroxypropylcellulose) (HPC)) was 98 % of control.

On to `Cc1cccc(C)c1NC(=O)C(Cl)c1ccccc1` (stereo unspecified), for which the T/C was 107 % of control under setting [11]; 98 % of control under setting [4]; 91 % of control under setting [12]; 98 % of control under setting [5]; 98 % of control under setting [13]; 98 % of control under setting [6].

In the case of `CCCC1OCC(C)C(C)O1` (stereo unspecified), the T/C (dose: 50.0 mg/kg/injection, schedule: Q01DX009 (ip), vehicle: acetone) was 101 % of control; the T/C (dose: 100.0 mg/kg/injection, schedule: Q01DX009 (ip), vehicle: acetone) is 98 % of control; the T/C (dose: 100.0 mg/kg/injection, schedule: Q04DX003 (ip), vehicle: acetone) is 106 % of control; the T/C (dose: 200.0 mg/kg/injection, schedule: Q01DX009 (ip), vehicle: acetone) was 112 % of control; the T/C (dose: 200.0 mg/kg/injection, schedule: Q04DX003 (ip), vehicle: acetone) was 109 % of control; the T/C (dose: 400.0 mg/kg/injection, schedule: Q04DX003 (ip), vehicle: acetone) was 123 % of control.

Consider `CCC(C)C1CC1(Br)Br` (stereo unspecified), for which the T/C under setting [14] is 100 % of control; the T/C (dose: 200.0 mg/kg/injection, schedule: Q04DX003 (ip), vehicle: saline with Tween-80) is 100 % of control; the T/C (dose: 400.0 mg/kg/injection, schedule: Q04DX003 (ip), vehicle: saline with Tween-80) is 98 % of control.

As to `COc1cccc(C(=O)C=C(C(F)(F)F)C(F)(F)F)c1`, the T/C is 95 % of control (dose: 25.0 mg/kg/injection, schedule: Q04DX003 (ip), vehicle: saline with Tween-80); 97 % of control (dose: 50.0 mg/kg/injection, schedule: Q04DX003 (ip), vehicle: saline with Tween-80); 94 % of control under setting [14].

On to `CCCCCCCCCCCCCCCC[n+]1ccc(C#N)cc1`, for which the T/C runs as follows: under setting [1], 89 % of control; under setting [2], 97 % of control; (dose: 2.5 mg/kg/injection, schedule: Q04DX003 (ip), vehicle: saline) 97 % of control; under setting [3], 94 % of control; (dose: 5.0 mg/kg/injection, schedule: Q04DX003 (ip), vehicle: saline) 101 % of control; (dose: 10.0 mg/kg/injection, schedule: Q01DX001 (ip), vehicle: saline) 90 % of control. Further, under “dose: 10.0 mg/kg/injection, schedule: Q04DX003 (ip), vehicle: saline”, the T/C was 94 % of control.

Turning to `O=C(Nc1ccc(Cl)cc1)Nc1cccc2ccccc12`, the T/C reads like this: under setting [11], 91 % of control; under setting [4], 94 % of control; under setting [12], 89 % of control; under setting [5], 94 % of control; under setting [13], 97 % of control; under setting [6], 93 % of control.

Turning to `OCC1(CO)COC2(CCCCC2)OC1`, the T/C by setting is: under setting [4], 89 % of control; under setting [5], 91 % of control; under setting [6], 91 % of control.

(Values after PubChem BioAssay AID248 (DTP/NCI, 2004).)
